In ChEMBL document CHEMBL1221372, “Design and synthesis of new adamantyl-substituted antileishmanial ether phospholipids” (Bioorg Med Chem Lett, 2010):

Experiments:
[1] = system: Leishmania infantum; test: Antileishmanial activity against intracellular amastigote form of Leishmania infantum MK-1 infected in human THP1 cells after 48 hrs using giemsa staining; format: functional, organism-based; settings: MK-1, THP-1, 48 h
[2] = system: THP-1; test: Cytotoxicity against human THP1 cells using propidium iodide and SYBR-14 staining after 72 hrs by flow cytometry; format: cell-based; settings: THP-1, 72 h
[3] = system: Leishmania infantum; test: Antileishmanial activity against intracellular amastigote form of Leishmania infantum MON 235 infected in human THP1 cells after 48 hrs using giemsa staining; format: functional, organism-based; settings: MON 235, THP-1, 48 h
[4] = Selectivity index, ratio of IC50 for human THP1 cells to IC50 for intracellular amastigote form of Leishmania infantum MON 235; format: toxicity, cell-based, THP-1; settings: read-out: Ratio IC50
[5] = species: Homo sapiens; test: Half life in human; format: ADME, organism-based; settings: in vivo
[6] = Selectivity index, ratio of IC50 for human THP1 cells to IC50 for intracellular amastigote form of Leishmania infantum MK-1; format: toxicity, cell-based, THP-1; settings: read-out: Ratio IC50

Row | Compound | IC50 [1] [µM] | IC50 [3] [µM] | t1/2 [5] [h] | IC50 [2] [µM] | selectivity ratio [4] | selectivity ratio [6]
1 | CCCCOCCC12CC3CC(C1)CC(CCOP(=O)([O-])OCC[N+](C)(C)C)(C3)C2 | > 50 | – | – | > 50 | – | –
2 | CCCCCCCCCCOCCC12CC3CC(C1)CC(CCOP(=O)([O-])OCC[N+](C)(C)C)(C3)C2 | > 18.4 | – | – | 18.4 | – | –
3 | C[N+](C)(C)[C@H]1CCC[C@@H]1OP(=O)([O-])OCCCCCCCCCCC=C1C2CC3CC(C2)CC1C3 | – | 0.3 | – | 75 | 250 | –
4 | C[N+](C)(C)CCOP(=O)([O-])OCCC12CC3CC(CC(CCOCc4ccccc4)(C3)C1)C2 | 41.8 | – | – | > 50 | – | –
5 | CCCCCCCCCCCCOCCC12CC3CC(C1)CC(CCOP(=O)([O-])OCC[N+](C)(C)C)(C3)C2 | > 21.4 | – | – | 21.4 | – | –
6 | CCCCCCCCOCCC12CC3CC(C1)CC(CCOP(=O)([O-])OCC[N+](C)(C)C)(C3)C2 | 16.2 | – | – | > 50 | – | –
7 | CCCCCCCCCCCCCCCCOP(=O)([O-])OCC[N+](C)(C)C [MILTEFOSINE] | 2.56 | 6.7 | 1.67 | – | 8.7 | 11.2
8 | CCCCCCOCCC12CC3CC(C1)CC(CCOP(=O)([O-])OCC[N+](C)(C)C)(C3)C2 | 17.1 | – | – | > 50 | – | –

Now from value to compound, other results behind:

Row | IC50 [1] [µM] | IC50 [3] [µM] | t1/2 [5] [h] | Compound | IC50 [2] [µM] | selectivity ratio [4] | selectivity ratio [6]
9 | – | 1.34 | – | C[N+]1(CCOP(=O)([O-])OCCCCCCCCCCC=C2C3CC4CC(C3)CC2C4)CCOCC1 | – | 27.9 | –
10 | – | 5.69 | – | C[N+]1(CCOP(=O)([O-])OCCCCCCCCCCC=C2C3CC4CC(C3)CC2C4)CCCCC1 | – | 29.6 | –
11 | – | 0.031 | – | C[N+](C)(C)CCOP(=O)([O-])OCCCCCCCCCCC=C1C2CC3CC(C2)CC1C3 | – | 1920 | –
12 | – | 9.1 | – | C[N+]1(C)C2CCC1CC(=CCOP(=O)([O-])OCCCCCCCCCCC=C1C3CC4CC(C3)CC1C4)C2 | – | 16.2 | –
13 | – | 5.2 | – | C[N+](C)(C)CC#CCOP(=O)([O-])OCCCCCCCCCCC=C1C2CC3CC(C2)CC1C3 | – | 14.5 | –
14 | – | 0.8 | – | C[N+](C)(C)[C@H]1CCCC[C@@H]1OP(=O)([O-])OCCCCCCCCCCC=C1C2CC3CC(C2)CC1C3 | 39.7 | 49.6 | –
